Results on 32 compounds are retold here after patent publication US9394300B2, “Quinolone derivatives” (Cadila Healthcare Limited, priority 2012, dated 2016).

Assay [1] deals with C57 Mice. The experiment in a line: Estimating circulating EPO release in mice (plasma EPO by mouse EPO ELISA). The assay is classed as in vivo. The note with it: plasma six hours after administration, EPO in control = 62 ng/mL. On the procedure:
(1) Protocol for Estimating Circulating EPO Release in Mice
C57 Mice were administered various doses (10 mg/kg, 30 mg/kg, 50 mg/kg, 100 mg/kg) of compounds of the present invention by oral gavage at 10 ml/kg. Six hours after compound administration, mice were bled by retro-orbital puncture, under light ether anesthesia in microfuge tubes containing 2% EDTA (10 μl/100 μl of blood). Plasma was separated and analyzed for EPO content by mouse EPO ELISA.

In assay [2] the test system is C57 Mice. The experiment in a line: Estimating hemoglobin levels in mice. The assay is classed as in vivo. Conditions: oral once daily for 7 consecutive days at 20 mg/kg, whole blood on 8th day. On the procedure:
(2) Protocol for Estimating Hemoglobin Levels in Mice
C57 mice were administered compounds of the present invention at 10 ml/kg by oral route daily once in the morning for 7 consecutive days at 20 mg/kg. On 8th day animals were bled by retro-orbital puncture under light ether anesthesia in microfuge tubes containing 2% EDTA (10 μl/100 μl of blood) for whole blood. Hemoglobin, Reticulocyte count and RBC count were measured using standard procedures.

Each structure is given as a SMILES string.

`O=C(O)CNC(=O)c1c(O)c2ccccc2n(OCc2ccccc2)c1=O` [Example 1, 2-(1-(benzyloxy)-4-hydroxy-2-oxo-1,2-dihydroquinoline-3-carboxamido)acetic acid]: the “EPO (ng/mL) oral gavage 100 mg/kg” value with C57 Mice [1] is recorded as 7118 ng/mL. For `C=CCOn1c(=O)c(C(=O)NCC(=O)O)c(O)c2cc(Oc3ccccc3)ccc21` [Example 8, 2-(1-(allyloxy)-4-hydroxy-2-oxo-6-phenoxy-1,2-dihydroquinoline-3-carboxamido)acetic acid], the “Hemoglobin (g/dL) 20 mg/kg compound” value with C57 Mice [2] is listed as 15.8 g/dL.

With `C=CCOn1c(=O)c(C(=O)NCC(=O)O)c(O)c2sccc21` [Example 10, 2-(4-(allyloxy)-7-hydroxy-5-oxo-4,5-dihydrothieno[3,2-b]pyridine-6-carboxamido)acetic acid], the “Hemoglobin (g/dL) 20 mg/kg compound” value with C57 Mice [2] is reported as 13.8 g/dL. Take `COn1c(=O)c(C(=O)NCC(=O)O)c(O)c2ccccc21` [Example 11, 2-(4-hydroxy-1-methoxy-2-oxo-1,2-dihydroquinoline-3-carboxamido)acetic acid]: the “EPO (ng/mL) oral gavage 100 mg/kg” value in the assay with C57 Mice [1] was 1593 ng/mL.

With `O=C(O)CNC(=O)c1c(O)c2ccccc2n(OCc2ccc(C(F)(F)F)cc2)c1=O` [Example 12, 2-(4-hydroxy-2-oxo-1-((4-(trifluoromethyl)benzyl)oxy)-1,2-dihydroquinoline-3-carboxamido)acetic acid], in the assay with C57 Mice [1], the “EPO (ng/mL) oral gavage 100 mg/kg” value is 7056 ng/mL. With `O=C(O)CNC(=O)c1c(O)c2ccccc2n(OCc2c(F)cccc2F)c1=O` [Example 16, 2-(1-((2,6-difluorobenzyl)oxy)-4-hydroxy-2-oxo-1,2-dihydroquinoline-3-carboxamido)acetic acid], in the assay with C57 Mice [1] (oral gavage 10 mg/kg), the “EPO (ng/mL) oral gavage 10 mg/kg” value was 100 ng/mL. The “EPO (ng/mL) oral gavage 50 mg/kg” value with C57 Mice [1] is on record as 8043 ng/mL.

For `O=C(O)CNC(=O)c1c(O)c2ccc(Cl)cc2n(OCc2c(F)cccc2F)c1=O` [Example 20, 2-(7-chloro-1-((2,6-difluorobenzyl)oxy)-4-hydroxy-2-oxo-1,2-dihydroquinoline-3-carboxamido)acetic acid], the “EPO (ng/mL) oral gavage 50 mg/kg” value with C57 Mice [1] is reported as 3797 ng/mL. For `CC(C)On1c(=O)c(C(=O)NCC(=O)O)c(O)c2ccccc21` [Example 25, 2-(4-hydroxy-1-isopropoxy-2-oxo-1,2-dihydroquinoline-3-carboxamido)acetic acid], in the assay on C57 Mice [2], the “Hemoglobin (g/dL) 20 mg/kg compound” value is recorded as 14.9 g/dL. Still for that read-out and setting: the figure for `CC(C)COn1c(=O)c(C(=O)NCC(=O)O)c(O)c2ccccc21` [Example 28, 2-(4-hydroxy-1-isobutoxy-2-oxo-1,2-dihydroquinoline-3-carboxamido)acetic acid] is 16.9 g/dL; for `O=C(O)CNC(=O)c1c(O)c2nccnc2n(OCc2c(F)cccc2F)c1=O` [Example 36, 2-(5-((2,6-difluorobenzyl)oxy)-8-hydroxy-6-oxo-5,6-dihydropyrido[2,3-b]pyrazine-7-carboxamido)acetic acid] it is 14.2 g/dL; for `CCC(CC)On1c(=O)c(C(=O)NCC(=O)O)c(O)c2ccccc21` [Example 38, 2-(4-hydroxy-2-oxo-1-(pentan-3-yloxy)-1,2-dihydroquinoline-3-carboxamido)acetic acid] it is 15.8 g/dL.

Turning to `CCCOn1c(=O)c(C(=O)NCC(=O)O)c(O)c2scc(C)c21` [Example 40, 2-(7-hydroxy-3-methyl-5-oxo-4-propoxy-4,5-dihydrothieno[3,2-b]pyridine-6-carboxamido)acetic acid], the “Hemoglobin (g/dL) 20 mg/kg compound” value with C57 Mice [2] was 16.1 g/dL.

In the case of `Cc1csc2c(O)c(C(=O)NCC(=O)O)c(=O)n(OCc3c(F)cccc3F)c12` [Example 42, 2-(4-((2,6-difluorobenzyl)oxy)-7-hydroxy-3-methyl-5-oxo-4,5-dihydrothieno[3,2-b]pyridine-6-carboxamido)acetic acid], the “Hemoglobin (g/dL) 20 mg/kg compound” value in the assay with C57 Mice [2] is listed as 16.1 g/dL. For the compound `O=C(O)CNC(=O)c1c(O)c2ccccc2n(OCC2CCCCC2)c1=O` [Example 44, 2-(1-(cyclohexylmethoxy)-4-hydroxy-2-oxo-1,2-dihydroquinoline-3-carboxamido)acetic acid], in the assay with C57 Mice [2], the “Hemoglobin (g/dL) 20 mg/kg compound” value is on record as 16.1 g/dL. Turning to `C[C@H](NC(=O)c1c(O)c2ccccc2n(OCC2CC2)c1=O)C(=O)O` [Example 45, (S)-2-(1-(cyclopropylmethoxy)-4-hydroxy-2-oxo-1,2-dihydroquinoline-3-carboxamido)propanoic acid], in the assay with C57 Mice [2], the “Hemoglobin (g/dL) 20 mg/kg compound” value is on record as 15.7 g/dL. Still for that read-out and setting: the figure for `O=C(O)CNC(=O)c1c(O)c2cncnc2n(OCc2c(F)cccc2F)c1=O` [Example 46, 2-(8-((2,6-difluorobenzyl)oxy)-5-hydroxy-7-oxo-7,8-dihydropyrido[2,3-d]pyrimidine-6-carboxamido)acetic acid] is 14.2 g/dL. The same measure, in the same setting: in the case of `O=C(N[C@H](C(=O)O)c1ccccc1)c1c(O)c2ccccc2n(OCC2CC2)c1=O` [Example 47, (S)-2-(1-(cyclopropylmethoxy)-4-hydroxy-2-oxo-1,2-dihydroquinoline-3-carboxamido)-2-phenylacetic acid] it was 14.2 g/dL. Same read-out and setting: the figure for `C=CCOn1c(=O)c(C(=O)NCC(=O)O)c(O)c2ccc(N3CCOCC3)cc21` [Example 48, 2-(1-(allyloxy)-4-hydroxy-7-morpholino-2-oxo-1,2-dihydroquinoline-3-carboxamido)acetic acid] is 13.9 g/dL; for `CC(C)(C)OC(=O)CNC(=O)c1c(O)c2ccccc2n(OCC2CC2)c1=O` [Example 49, tert-butyl-2-(1-(cyclopropylmethoxy)-4-hydroxy-2-oxo-1,2-dihydroquinoline-3-carboxamido)acetate] it is 14.1 g/dL.

Regarding `COC(=O)CNC(=O)c1c(O)c2ccccc2n(OCC2CC2)c1=O` [Example 53, methyl-2-(1-(cyclopropylmethoxy)-4-hydroxy-2-oxo-1,2-dihydroquinoline-3-carboxamido)acetate], the “Hemoglobin (g/dL) 20 mg/kg compound” value with C57 Mice [2] is on record as 15.2 g/dL. On the same count and under the same terms, the figure for `CC(C)C[C@H](NC(=O)c1c(O)c2ccccc2n(OCC2CC2)c1=O)C(=O)O` [Example 54, (S)-2-(1-(cyclopropylmethoxy)-4-hydroxy-2-oxo-1,2-dihydroquinoline-3-carboxamido)-4-methylpentanoic acid] is 13.7 g/dL; for `CC(C)[C@H](NC(=O)c1c(O)c2ccccc2n(OCC2CC2)c1=O)C(=O)O` [Example 55, (S)-2-(1-(cyclopropylmethoxy)-4-hydroxy-2-oxo-1,2-dihydroquinoline-3-carboxamido)-3-methylbutanoic acid] it is 13 g/dL. On the same count and under the same terms, the figure for `O=C(O)CCNC(=O)c1c(O)c2ccccc2n(OCC2CC2)c1=O` [Example 56, 3-(1-(cyclopropylmethoxy)-4-hydroxy-2-oxo-1,2-dihydroquinoline-3-carboxamido)propanoic acid] is 14.4 g/dL. The same measure, in the same setting: in the case of `O=C(N[C@@H](Cc1ccccc1)C(=O)O)c1c(O)c2ccccc2n(OCC2CC2)c1=O` [Example 58, (S)-2-(1-(cyclopropylmethoxy)-4-hydroxy-2-oxo-1,2-dihydroquinoline-3-carboxamido)-3-phenylpropanoic acid] it was 14 g/dL. As for `O=C(O)CNC(=O)c1c(O)c2ccccc2n(OCc2ccccc2F)c1=O` [Example 62, 2-(1-((2-fluorobenzyl)oxy)-4-hydroxy-2-oxo-1,2-dihydroquinoline-3-carboxamido)acetic acid], in the assay with C57 Mice [1], the “EPO (ng/mL) oral gavage 50 mg/kg” value is given as 398 ng/mL.

For `CCOn1c(=O)c(C(=O)NCC(=O)O)c(O)c2ccccc21` [Example 63, 2-(1-ethoxy-4-hydroxy-2-oxo-1,2-dihydroquinoline-3-carboxamido)acetic acid], in the assay on C57 Mice [1], the “EPO (ng/mL) oral gavage 50 mg/kg” value is given as 539 ng/mL. `O=C(O)CNC(=O)c1c(O)c2ccccc2n(OCC(F)(F)F)c1=O` [Example 69, 2-(4-hydroxy-2-oxo-1-(2,2,2-trifluoroethoxy)-1,2-dihydroquinoline-3-carboxamido)acetic acid]: the “Hemoglobin (g/dL) 20 mg/kg compound” value in the assay with C57 Mice [2] is on record as 15.7 g/dL. Same read-out and setting: in the case of `O=C(O)CNC(=O)c1c(O)c2ccncc2n(OCC2CC2)c1=O` [Example 70, 2-(1-(cyclopropylmethoxy)-4-hydroxy-2-oxo-1,2-dihydro-1,7-naphthyridine-3-carboxamido)acetic acid] it was 13.9 g/dL; in that of `CCCOn1c(=O)c(C(=O)N[C@@H](C)C(=O)O)c(O)c2ccccc21` [Example 73, (S)-2-(4-hydroxy-2-oxo-1-propoxy-1,2-dihydroquinoline-3-carboxamido)propanoic acid], 16.2 g/dL. Take `O=C(O)CNC(=O)c1c(O)c2ccccc2n(OCC/C=C/C2CC2)c1=O` [Example 76, 2-(1-((4-cyclopropylbut-3-en-1-yl)oxy)-4-hydroxy-2-oxo-1,2-dihydroquinoline-3-carboxamido)acetic acid]: the “Hemoglobin (g/dL) 20 mg/kg compound” value in the assay with C57 Mice [2] was 17.1 g/dL. On the same count and under the same terms, the figure for `CCCC(CCC)On1c(=O)c(C(=O)NCC(=O)O)c(O)c2ccccc21` [Example 77, 2-(1-(heptan-4-yloxy)-4-hydroxy-2-oxo-1,2-dihydroquinoline-3-carboxamido)acetic acid] is 15.5 g/dL; for `O=C(O)CNC(=O)c1c(O)c2sccc2n(OCC2CC2)c1=O` [Example 79, 2-(4-(cyclopropylmethoxy)-7-hydroxy-5-oxo-4,5-dihydrothieno[3,2-b]pyridine-6-carboxamido)acetic acid] it is 14.3 g/dL.
